Measurements as given in paper PMC9410537, “Discovery of Ircinianin Lactones B and C—Two New Cyclic Sesterterpenes from the Marine Sponge Ircinia wistarii” (Marine Drugs, 2022).

Experiments:
[1] = tested on: T. cruzi Tulahuen strain C2C4; test: Activity against T. cruzi in L-6 cells (beta-galactosidase/CPRG); type: cell-based, Trypanosoma cruzi; details: in vitro, Tulahuen C2C4 in L-6 cells, Table 2 values are means of two independent assays
Procedure: Activity against T. cruzi. Rat skeletal myoblasts (L-6 cells) were seeded in 96-well microtiter plates at 2000 cells/well in 100 μL RPMI 1640 medium with 10% FBS and 2 mM L-glutamine. After 24 h, the media in each well was removed and replaced with 100 μL of fresh media containing 5000 trypomastigote forms of T. cruzi Tulahuen strain C2C4 containing the β-galactosidase (lacZ) gene. After 48 h, the media was removed from the wells again, and this time, replaced by 100 μL fresh medium with or without 1 from 100 to 0.002 μg/mL. After 96 h of incubation, the plates were inspected under an inverted microscope to assess growth and sterility of the controls. Then, the substrate CPRG/Nonidet (50 μL) was added to all wells. A color reaction developed within 2–6 h and could be read photometrically at 540 nm.

[2] = tested on: L. donovani strain MHOM/ET/67/L82 axenic amastigotes; test: Activity against L. donovani axenic amastigotes (resazurin); type: cell-based, Leishmania donovani; details: Leishmania donovani, in vitro, Table 2 values are means of two independent assays
Procedure: Activity against L. donovani axenic amastigotes. Amastigotes of L. donovani strain MHOM/ET/67/L82 were grown in axenic culture at 37 °C in SM medium at pH 5.4 supplemented with 10% heat-inactivated fetal bovine serum under an atmosphere of 5% CO2 in air. 100 µL of culture medium with 10^5 amastigotes from axenic culture with or without a serial drug dilution were seeded in 96-well microtiter plates. Serial drug dilutions ranged from 100 to 0.002 μg/mL. After 70 h of incubation, the plates were inspected under an inverted microscope to assure growth of the controls and sterile conditions.

[3] = tested on: set of clinically relevant bacteria (ESKAPE panel and one mycobacterial strain); test: Antibacterial assay (MIC), whole strain panel; type: cell-based; details: highest concentration tested
Procedure: (§1) The minimal inhibitory concentration (MIC) was determined as described previously in cation-adjusted Mueller-Hinton medium according to the standards and guidelines of the Clinical and Laboratory Standards Institute. […] After an overnight incubation at 37 °C, the MIC was read as the lowest compound concentration preventing visible bacterial growth. The strain panel included representative species of nosocomial pathogens, known as “[…]” bacteria. Specifically, the following strains were used: Enterococcus faecium BM 4147-1, Staphylococcus aureus ATCC 29213, Klebsiella pneumoniae ATCC 12657, Acinetobacter baumannii 09987, Pseudomonas aeruginosa ATCC 27853, and Enterobacter aerogenes ATCC 13048. Bacillus subtilis 168, Escherichia coli ATCC 25922, and Mycobacterium smegmatis mc^2 155 ATCC 700084 were used as further reference strains.

A. baumannii 09987 = test: Antibacterial assay (MIC); type: cell-based; details: Acinetobacter baumannii
Procedure: as §1

B. subtilis 168 = test: Antibacterial assay (MIC); type: cell-based; details: Bacillus subtilis
Procedure: as §1

E. coli ATCC25922 = test: Antibacterial assay (MIC); type: cell-based; details: Escherichia coli
Procedure: as §1

E. faecium BM4147-1 = test: Antibacterial assay (MIC); type: cell-based; details: Enterococcus faecium, BM41471
Procedure: as §1

K. pneumoniae ATCC12657 = test: Antibacterial assay (MIC); type: cell-based; details: Klebsiella pneumoniae
Procedure: as §1

P. aeruginosa ATCC27853 = test: Antibacterial assay (MIC); type: cell-based; details: Pseudomonas aeruginosa
Procedure: as §1

S. aureus ATCC29213 = test: Antibacterial assay (MIC); type: cell-based; details: Staphylococcus aureus
Procedure: as §1

[4] = tested on: Severe Acute Respiratory Syndrome Corona Virus type 2 (SARS-CoV-2); type: cell-based; details: up to the highest concentration tested (10 µM), CaCo2 cells
Wolbachia endosymbionts = test: Anthelmintic assay, depletion of Wolbachia endosymbionts from cultured adult female worms; type: cell-based, Litomosoides sigmodontis; details: 0.1, 1 and 10 µM, two weeks of in vitro culture; not statistically significant
Procedure: To investigate the activity against filarial nematodes, adult female worms of the rodent filarial nematode Litomosoides sigmodontis were cultured in vitro with a 0.1, 1 and 10 µM concentration of 1. Motility of adult filariae as well as reduction of Wolbachia endosymbionts were assessed. […] L. sigmodontis adult female worms were isolated from chronically infected cotton rats (UKB). Three L. sigmodontis female adult worms per condition were cultured in supplemented Minimal Essential Medium (MEM) on a LLCMK2 cell layer, as previously described. […] Candidate 1 was tested at concentrations of 0.1, 1 and 10 µM. Filarial viability was assessed by determining the mean worm motility scores on a scale of 0 (immotile) to 2 (maximum motility) before drug addition and at 1 h, 1 day, 2 day, 4 day, 6 day, 8 day, 10 day, 12 day and 14 day post drug addition. The drug-containing media was renewed every other day. Depletion of Wolbachia endosymbionts from female adult worms was analyzed after two weeks of in vitro culture and determined as previously described using primers for the single copy gene Wolbachia ftsZ.

[5] = tested on: HeLa human cervical carcinoma cell line; test: In vitro cytotoxicity assay with HeLa cells (resazurin); type: cell-based
Procedure: In vitro cytotoxicity assay with HeLa cells: The cytotoxicity test against the HeLa human cervical carcinoma cell line was performed as described previously in RPMI cell culture medium supplemented with 10% fetal bovine serum using the 7-hydroxy-3H-phenoxazin-3-one-10-oxide (resazurin) assay. Briefly, a 2-fold serial dilution of the test compounds was prepared in duplicates in a microtiter plate and seeded with trypsinized HeLa cells to a final cell concentration of 1 × 10^4 cells per well. After 24 h of incubation at 37 °C, with 5% CO2 and 95% relative humidity, resazurin was added at a final concentration of 200 μM, and cells were again incubated overnight. Cell viability was assessed by determining the reduction of resazurin to the fluorescent resorufin. Fluorescence was measured in a TECAN Infinite M200 reader at an excitation wavelength of 560 nm and an emission wavelength of 600 nm in relation to an untreated control.

[6] = Observed stability of the isolated compounds; type: physicochemical; details: rapid decomposition after the NMR measurements
Text: The shift values of the terminal heterocycle were in very good agreement with literature data from similar natural products, bearing a γ-hydroxy-γ-butenolide moiety. Analogous to compound 7, the Δ^8,10 double bond of 8 was defined as E (C-9: δC 16.2 and NOESY cross correlations depicted in Figure 4). Likewise, based on the same observed diagnostic NOE crosspeaks for the indene system (Figure S43B) and for biogenetic reasons, we propose that 8 is 11R*, 15R*, 18S*, 20R*, 21S* configured. […] Therefore, we integrated computational methods and aimed for quantum-mechanical predictions of ^1H and ^13C NMR chemical shifts of a 1S- and a 1R-configured version of 8.
All tests were performed with 1 as a pre-screening for the scaffold’s activity within their respective assays. Based on the results from the pre-screening, the biological evaluation of the structural congeners was planned. Unfortunately, an instability phenomenon affected the purity of the isolated compounds. Due to the limited amounts of the isolated compounds, repurification would not have yielded the required sample quantity for the assays. This reality precluded biological evaluation of the structural congeners 3–8.

CC1=C[C@@H](/C=C(\C)CCCc2ccoc2)[C@]2(OC(=O)C(C)=C2O)[C@@H]2[C@@H](C)CC[C@@H]12 [compound 1, Ircinianin]
IC50 [1]: > 80 µM
IC50 ([1]; listed as Ircinianin (1)): 191 µM
IC50 [2]: 16.6 µM
MIC [3]: > 32 µg/mL
MIC (A. baumannii 09987): > 32 µg/mL
MIC (B. subtilis 168): > 32 µg/mL
MIC (E. coli ATCC25922): > 32 µg/mL
MIC (E. faecium BM4147-1): > 32 µg/mL
MIC (K. pneumoniae ATCC12657): > 32 µg/mL
MIC (P. aeruginosa ATCC27853): > 32 µg/mL
MIC (S. aureus ATCC29213): > 32 µg/mL
Inhibition of SARS-CoV-2 infection [4]: no inhibition
Wolbachia reduction in comparison to media controls (Wolbachia endosymbionts): < 32%
IC50 [5]: > 64 µg/mL
Stability of isolated compound [6]: unstable
